Experiment [1] concerns Tyromyces palustris. Briefly: Test for wood rotting-preventing effect (mycelium growth inhibition on malt extract agar). The note with it: 28° C.±2° C., 2 to 10 days, read-out: Rotting preventing effect (mycelium growth-inhibitory rate), TYP. In kind it is cell-based. An outline of the steps: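 Mycelial agar disks (4 mm) were placed on malt extract agar containing test compound at 50 ppm and grown at 28° C.±2° C. Colony diameter was measured 2-10 days after inoculation and converted to percent mycelium growth inhibition, reported as symbol grades.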

Experiment [2] has as its system Aspergillus niger. The description is as above. It is filed as cell-based. As to conditions: 28° C.±2° C., 2 to 10 days, read-out: Rotting preventing effect (mycelium growth-inhibitory rate), ASN. An outline of the steps:
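Mycelial agar disks (4 mm) placed on malt extract agar containing 50 ppm test compound, incubated at 28° C.±2° C. Colony diameter measured 2–10 days after inoculation; growth-inhibitory rate (%) reported as symbol-coded score.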

Experiment [3] deals with Pseudoperonospora cubensis. Briefly: Test for controlling effect on downy mildew of cucumber. It is filed as in vivo. As to conditions: 168 h, 200 ppm spray, one day before inoculation, cucumber 2-leaf stage, read-out: Controlling effect (control of disease), Downy mildew of cucumber. The essentials:
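200 ppm compound sprayed on potted 2-leaf cucumber; P. cubensis zoospores spray-inoculated one day later. Plants kept 1 day in humid room at 25° C, then 6 days in greenhouse. Control computed from per-leaf infection relative to untreated plot.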

Experiment [4] has as its system Rhizoctonia solani. The experiment is described as follows: Test for controlling effect on sheath blight of rice. It is filed as in vivo. The note with it: 120 h, 200 ppm spray, 24 hours after inoculation, rice 4-leaf stage, five days after inoculation, read-out: Controlling effect (control of disease), Sheath blight of rice. The essentials:
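Rice seedlings at the 4-leaf stage were inoculated with mycelium, then sprayed 24 h later with compound at 200 ppm. After air-drying, plants were held 24 h at 28 °C and 98% humidity, then moved to a greenhouse. Infected area was scored 5 days post-inoculation; control was calculated relative to untreated plants.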

The test system of experiment [5] is Candida albicans IFO 1270. The experiment is described as follows: In vitro antimycotic activity on Candida albicans. It is filed as cell-based. As to conditions: IFO1270, 10 (ppm), SGB, 37° C., 48 hours, turbidity at 650 nm, read-out: Antimycotic activity (growth inhibitory rate), C.albicans. As for the experimental part: 3-1 In vitro antimycotic activity on Candida albicans
Candida albicans IFO 1270 pre-cultured on a Sabouraud's glucose agar (SGA) plate medium at 37° C. […] was suspended in a sterilized physiological salt solution. The number of fungi in the resulting suspension was counted with a globulimeter, and adjusted so as to be 1×10^7 cell/ml with a sterilized physiological salt solution. This solution was used as an inoculum solution. Thereafter, 0.1 ml of this solution and 0.1 ml of a dimethyl sulfoxide (DMSO) solution of the test compound were added to 9.8 ml of Sabouraud's glucose broth (SGB), and shake-cultured at 37° C. for 48 hours. After culture, the medium turbidity was measured at 650 nm, and the growth-inhibitory rate of the fungus was calculated according to the following equation.
Growth inhibitory rate (%)=(1-W/Y)×100
Y: Medium turbidity of DMSO control group
W: Medium turbidity of test compound group
From this inhibitory rate, the antimycotic activity was shown by the symbols A to D. The test results of the test compounds are shown in Table 4.

Experiment [6] relates to Aspergillus fumigatus TIMM 0063. The experiment is described as follows: In vitro antimycotic activity on Aspergillus fumigatus. It is filed as cell-based. The note with it: TIMM0063, 10 (ppm), Casitone agar, 37° C., 48 hours, read-out: Antimycotic activity (growth inhibitory rate), A.fumigatus. On the procedure: 3-2 In vitro antimycotic activity on Aspergillus fumigatus.
To Aspergillus fumigatus TIMM 0063 precultured at 37° C. for 48 hours on a potato dextrose agar (PDA) slant medium was added a sterilized physiological salt solution containing 0.1%(W/V) Tween 80. After conidia were made free from the solution, the solution was filtered through a sterilized two-sheet gauze to remove the mycelium mass. The number of the conidia in the resulting suspension was counted with a globulimeter and adjusted so as to be 1×10^5 conidia/ml with a sterilized physiological salt solution containing 0.1%(W/V) Tween 80. This solution was used as an inoculum solution. Casitone agar plate medium containing the DMSO solution of the test compound in a rate of 1% (V/V) was inoculated with the inoculum solution at four places thereof with a microplanter, and cultured with the medium allowed to stand at 37° C. for 48 hours. After culture, the diameter of the mycelium disks cultivated at the four inoculated parts was measured, and its mean value was obtained. The growth inhibitory rate was calculated according to the following equation, and the antimycotic activity was shown in the same manner as in Test Example 3-1.
Growth inhibitory rate (%)=(1-W'/Y')×100
Y': Diameter of mycelium disk of DMSO control group
W': Diameter of mycelium disk of test compound group

In the case of `CS(=O)(=O)c1snc(OCC#CI)c1C#N` [Compound 41, 3-(3-iodo-2-propynyloxy)-4-cyano-5-methylsulfonylisothiazole], the inhibition at 50 ppm in experiment [1] and in experiment [2] was 95 to 100% each time. The values for the pest or weed control at 200 ppm in experiment [3] and in experiment [4] were 95 to 100% and 80 to 94%, respectively. The inhibition of growth at 10 µg/mL in experiment [5] and in experiment [6] was 100% in each case.
Regarding `N#Cc1c(OCC#CI)nsc1S(=O)(=O)C(F)F` [Compound 43], the inhibition at 50 ppm in experiment [1] and in experiment [2] was 95 to 100% throughout. The pest or weed control at 200 ppm in experiment [3] and in experiment [4] was 95 to 100% throughout. Further, the inhibition of growth at 10 µg/mL in experiment [5] and in experiment [6] was 100% each time.
For `CSc1snc(OC(C)OCC#CI)c1C#N` (stereo not drawn) [Compound 119], the inhibition at 50 ppm in experiment [1] and in experiment [2] was 95 to 100% in each case. Also, the pest or weed control at 200 ppm in experiment [3] is 95 to 100%; in experiment [4], 80 to 94%. Besides, the inhibition of growth at 10 µg/mL in experiment [5] and in experiment [6] was 100% each time.
`N#Cc1c(OC(F)F)nsc1OCCC#CI` [Compound 82]: the inhibition at 50 ppm in experiment [1] and in experiment [2] was 95 to 100% each time. The pest or weed control at 200 ppm in experiment [3] and in experiment [4] was 95 to 100% throughout. Moreover, the inhibition of growth at 10 µg/mL in experiment [5] and in experiment [6] was 100% throughout.
As to `CCOc1snc(OCOCC#CI)c1C#N` [Compound 96], the inhibition at 50 ppm in experiment [1] and in experiment [2] was 95 to 100% each time. In addition, the pest or weed control at 200 ppm in experiment [3] and in experiment [4] was 95 to 100% throughout. In addition, the inhibition of growth at 10 µg/mL in experiment [5] and in experiment [6] was 100% throughout.
Turning to `COc1nsc(OCC#CI)c1C#N` [Compound 48], the inhibition at 50 ppm in experiment [1] and in experiment [2] was 95 to 100% throughout. The pest or weed control at 200 ppm in experiment [3] and in experiment [4] was 95 to 100% each time. In addition, the inhibition of growth at 10 µg/mL in experiment [5] and in experiment [6] was 100% throughout.
In the case of `CSc1snc(OCC#CI)c1C#N` [Compound 1, 3-(3-iodo-2-propynyloxy)-4-cyano-5-methylthioisothiazole], the inhibition at 50 ppm in experiment [1] lay in the range of 95 to 100%; in experiment [2], 80 to 94%. For the same compound, the pest or weed control at 200 ppm in experiment [3] was in the range of 95 to 100%; in experiment [4], 60 to 79%. In addition, the inhibition of growth at 10 µg/mL in experiment [5] and in experiment [6] was 100% throughout.
`COc1snc(OCC#CI)c1C#N` [Compound 21, 3-(3-iodo-2-propynyloxy)-4-cyano-5-methoxyisothiazole]: the inhibition at 50 ppm in experiment [1] and in experiment [2] was 95 to 100% throughout. Also, the pest or weed control at 200 ppm in experiment [3] and in experiment [4] was 95 to 100% in each case. In addition, the inhibition of growth at 10 µg/mL in experiment [5] and in experiment [6] was 100% throughout.
`CC(C)Oc1snc(OCC#CI)c1C#N` [Compound 23]: the inhibition at 50 ppm in experiment [1] and in experiment [2] was 95 to 100% in each case. In addition, the pest or weed control at 200 ppm was 95 to 100% in experiment [3] and 80 to 94% in experiment [4]. In addition, the inhibition of growth at 10 µg/mL in experiment [5] and in experiment [6] was 100% in each case.
Regarding `CN(C)c1snc(OCC#CI)c1C#N` [Compound 30, 3-(3-iodo-2-propynyloxy)-4-cyano-5-dimethylaminoisothiazole], the inhibition at 50 ppm in experiment [1] and in experiment [2] was 95 to 100% throughout. Moreover, the pest or weed control at 200 ppm in experiment [3] and in experiment [4] was 95 to 100% in each case. Also, the inhibition of growth at 10 µg/mL in experiment [5] and in experiment [6] was 100% throughout.
As for `N#Cc1c(OC(F)F)nsc1SCOCC#CI` [Compound 60], the inhibition at 50 ppm in experiment [1] and in experiment [2] was 95 to 100% throughout. In addition, the pest or weed control at 200 ppm in experiment [3] and in experiment [4] was 95 to 100% throughout. For the same compound, the inhibition of growth at 10 µg/mL in experiment [5] and in experiment [6] was 100% each time.
Take `CSc1nsc(SCOCC#CI)c1C#N` [Compound 136]: the inhibition at 50 ppm in experiment [1] and in experiment [2] was 95 to 100% each time. In addition, the values for the pest or weed control at 200 ppm in experiment [3] and in experiment [4] were 95 to 100% and 80 to 94%, respectively. Moreover, the inhibition of growth at 10 µg/mL in experiment [5] and in experiment [6] was 100% throughout.
Turning to `CSc1snc(OCCC#CI)c1C#N` [Compound 70], the inhibition at 50 ppm in experiment [1] and in experiment [2] was 95 to 100% throughout. Further, the figures for the pest or weed control at 200 ppm in experiment [3] and in experiment [4] were 80 to 94% and 95 to 100%, respectively. The inhibition of growth at 10 µg/mL in experiment [5] and in experiment [6] was 100% each time.
With `N#Cc1c(OCOCC#CI)nsc1SC(F)F` [Compound 90], the inhibition at 50 ppm in experiment [1] and in experiment [2] was 95 to 100% in each case. Further, the pest or weed control at 200 ppm in experiment [3] and in experiment [4] was 95 to 100% each time. Also, the inhibition of growth at 10 µg/mL in experiment [5] and in experiment [6] was 100% in each case.
Turning to `N#Cc1c(OCC#CI)nsc1SC(F)F` [Compound 12, 3-(3-iodo-2-propynyloxy)-4-cyano-5-difluoromethylthioisothiazole], the inhibition at 50 ppm in experiment [1] and in experiment [2] was 95 to 100% in each case. Further, the values for the pest or weed control at 200 ppm in experiment [3] and in experiment [4] were 95 to 100% and 80 to 94%, respectively. The inhibition of growth at 10 µg/mL in experiment [5] and in experiment [6] was 100% each time.
Regarding `CCOc1nsc(SCOCC#CI)c1C#N` [Compound 54], the inhibition at 50 ppm in experiment [1] and in experiment [2] was 95 to 100% throughout. Moreover, the pest or weed control at 200 ppm in experiment [3] and in experiment [4] was 95 to 100% throughout. Further, the inhibition of growth at 10 µg/mL in experiment [5] and in experiment [6] was 100% throughout.

Source of the values: patent publication US5578622A, “Isothiazole derivatives and their uses” (Asamura Patent Office, priority 1994, dated 1996).
